In brackets after ≈: the same amount, converted by molar mass. Entries after “also recorded” stand apart in the source; their conditions may differ. Counter-ions that a name gives are not always drawn.
Key:
HEK293 cells = assay: MTT dose-response IC50, HEK293 cells; assay type: cell-based; settings: non-cancerous HEK293 cells, 24 h
Method: (§1) FaDu cells were obtained from the American Type Culture Collection (Rockville, MD, USA). HEK293 cells were kindly provided by Dr. Iliev lab at the Jill Roberts Institute for Inflammatory Bowel Disease, Weill Cornel Medicine of Cornel University (New York, NY, USA). All cells were cultivated in Dulbecco’s Modified Eagle Medium/Nutrient Mixture F-12 (DMEM/F-12) (Gibco, Waltham, MA, USA), 10% fetal bovine serum (FBS) (Gibco, Waltham, MA, USA), 100 U/mL penicillin, and 100 μg/mL streptomycin (P/S) (Gibco, Waltham, MA, USA). Culturing conditions were maintained at 37 °C in a humidified atmosphere containing 5% CO2. The culture medium was refreshed every 2–3 days, and cells were passaged upon reaching 70–80% confluence.
(§2) The in vitro inhibitory effects of the compounds were assessed by using the MTT assay. Briefly, cells were plated in 96-well plates at a density of 1 × 10⁴ cells per well. After the cells were allowed to adhere overnight at 37 °C in 5% CO₂, they were treated with compounds at a concentration of 100 µM in triplicate. Following a 20 h incubation, the MTT reagent was added, and the cells were further incubated for 4 h. The resulting formazan was solubilized in anhydrous DMSO, and absorbance was measured at 570 nm by using a microplate reader. Cell viability was calculated by using the following formula: ([AE − AB]/[AC − AB]) × 100%, where AE, AC, and AB represent the absorbance values of experimental samples, untreated controls, and blank wells, respectively. Data analysis was performed by using GraphPad Prism or QuickCalcs.
(§3) The data were fitted to a nonlinear regression model (GraphPad Prism version 9.0, GraphPad Software, San Diego, CA, USA) to calculate the IC50 values for each compound tested in triplicate.

FaDu cells [1] = assay: MTT dose-response IC50, FaDu cells; assay type: cell-based; settings: 0–100 µM, 24 h
Method: as §1, §2, §3

FaDu cells [2] = assay: Hydrogen peroxide production assay in FaDu cells; assay type: cell-based; settings: 6 h, 0.25% DMSO, versus untreated control
Method: FaDu cells were seeded on the 6-well plates and incubated with the compounds as described before. After incubation, cells were cooled down on ice, washed two times with ice-cold PBS, and scraped in PBS. Cells were centrifuged at 10,000× g for 10 min at 4 °C, the supernatant was discarded, and 650 µL of ice-cold PBS was added. Cells were sonicated and centrifuged at 10,000× g for 10 min at 4 °C to remove cell debris. The resulting supernatant was carefully collected for subsequent hydrogen peroxide analysis by using a commercial kit (Pierce™ Quantitative Peroxide Assay Kit (Aqueous), Catalog number 23280) (Invitrogen, ThermoFisher Scientific, Waltham, MA, USA).

E. faecalis AR-0671 = assay: Broth microdilution MIC, E. faecalis AR-0671; assay type: cell-based, Enterococcus faecalis; settings: CAMHB; for MIC: Enterococcus faecalis, AR0671, 18 ± 2 h, read-out: minimal inhibitory concentration (MIC) E. faecalis AR-0671
Source text: (§4) The multidrug-resistant S. aureus strain TCH 1516 [USA 300-HOU-MR] was obtained from the American Type Culture Collection (ATCC, Manassas, VA, USA) (Table 1). E. faecalis AR-0671, multidrug-resistant E. coli AR-0001, K. pneumoniae AR-0003, P. aeruginosa AR-1114, and A. baumannii AR-0273 strains were acquired from the Centers for Disease Control and Prevention (CDC) AR isolate bank (Table 1). Prior to the initiation of this study, all microbial strains were stored in commercial cryopreservation systems at a temperature of −80 °C. The strains were cultivated on Columbia sheep blood agar (Becton Dickinson, Franklin Lakes, NJ, USA) or potato dextrose agar (PDA) for Candida (Becton Dickinson, Franklin Lakes, NJ, USA).
(§5) The antimicrobial activity of 3-((3-hydroxyphenyl)amino)propanoic acid derivatives was assessed by using the broth microdilution method, following the guidelines outlined by the Clinical Laboratory Standards Institute (CLSI), with modifications. In brief, the compounds were dissolved in dimethyl sulfoxide (DMSO) to attain a final concentration of 25–30 mg/mL. Vancomycin hydrochloride (MedChem express, Cat. No. HY-17362), cefazolin (MedChem express, Cat. No. HY-B1892), and meropenem (MedChem express, Cat. No. HY-13678) were used as control antimicrobial drugs and were dissolved in DMSO as described before. Dilution series were prepared in deep 96-well microplates to achieve a two-fold concentration range of 0.25, 0.5, 1, 2, 4, 8, 16, 32, and 64 µg/mL, utilizing cation-adjusted Mueller–Hinton broth (CAMHB) as the growth medium. The microplates containing the dilution series were then inoculated with fresh cultures of each tested organism to reach a final concentration of 5 × 10^4 CFU (colony-forming units) of the test organism in media containing 1% DMSO and 1× drug concentration, with a volume of 200 µL per well. Wells that were inoculated with medium containing 1% DMSO served as positive controls. Subsequently, the microplates were incubated at 35 ± 1 °C for 18 ± 2 h. Following the incubation period, the plates were examined by using a manual microplate viewer (Sensititre Manual Viewbox, ThermoFisher Scientific, Waltham, MA, USA). […] All experiments were conducted in duplicate with three technical replicates for each condition.

A. baumannii AR-0273 = assay: Broth microdilution MIC, A. baumannii AR-0273; assay type: cell-based, Acinetobacter baumannii; settings: OXA-23, CAMHB; for MIC: Acinetobacter baumannii, AR0273, 18 ± 2 h, read-out: minimal inhibitory concentration (MIC) A. baumannii AR-0273
Source text: as §4, §5

FaDu cells [3] = assay: Superoxide dismutase (SOD) activity in FaDu cell lysate; assay type: cell-based; settings: 6 h, 0.25% DMSO, versus untreated control (DMSO)
Method: FaDu cells were seeded onto 6-well tissue culture plates at a density of 5 × 10^5 cells per well and incubated overnight to allow for cell attachment. Following the incubation period, the cells were treated with the selected compounds dissolved in tissue culture medium containing 0.25% DMSO and incubated for an additional 6 h. After the treatment, the medium was aspirated, and the cells were washed twice with phosphate-buffered saline (PBS) to remove residual compounds. The cells were then trypsinized for 10 min to detach them from the culture surface. Following trypsinization, the cells were collected by centrifugation, washed with ice-cold PBS to remove any residual trypsin, and resuspended in 0.5 mL of ice-cold PBS. The cell suspension was then subjected to sonication on ice for disruption. After sonication, the samples were centrifuged at 10,000× g for 10 min at 4 °C to remove cell debris. The resulting supernatant was carefully collected for the subsequent assessment of SOD activity. The activity of superoxide dismutase (SOD) was determined by using a commercial colorimetric assay kit (Superoxide Dismutase (SOD) Colorimetric Activity Kit, Catalog Number EIASODC) (Invitrogen, ThermoFisher Scientific, Waltham, MA, USA) following the manufacturer’s instructions.

S. aureus TCH 1516 [4] = assay: Broth microdilution MIC, S. aureus TCH 1516; assay type: cell-based; settings: Staphylococcus aureus, MRSA / USA300, mecA MRSA isolate, USA300 lineage; CAMHB, 18 ±; read-out: minimal inhibitory concentration (MIC) S. aureus TCH 1516
E. coli AR-0001 [5] = assay: Broth microdilution MIC, E. coli AR-0001; assay type: cell-based; settings: Escherichia coli, AR0001; multidrug-resistant, KPC-3; CAMHB, 18 ± 2 h; read-out: minimal inhibitory concentration (MIC) E. coli AR-0001
K. pneumoniae AR-0003 [6] = assay: Broth microdilution MIC, K. pneumoniae AR-0003; assay type: cell-based; settings: Klebsiella pneumoniae, AR0003; KPC-3; CAMHB, 18 ± 2 h; read-out: minimal inhibitory concentration (MIC) K. pneumoniae AR-0003
P. aeruginosa AR-1114 [7] = assay: Broth microdilution MIC, P. aeruginosa AR-1114; assay type: cell-based; settings: Pseudomonas aeruginosa, AR1114; IMP-15; CAMHB, 18 ± 2 h; read-out: minimal inhibitory concentration (MIC) P. aeruginosa AR-1114
S. aureus TCH 1516 [8] = assay: Broth microdilution MIC, S. aureus TCH 1516; assay type: cell-based, Staphylococcus aureus; settings: mecA MRSA isolate, USA300 lineage; CAMHB, 18 ± 2 h
Source text: as §4, §5

FaDu cells [9] = assay: MTT cell viability at fixed 100 µM, FaDu cells; assay type: cell-based; settings: 24 h, described in words (Figure 2)
Method: Test compounds 2–25 were dissolved in hybridoma-grade dimethyl sulfoxide (Millipore, Sigma, Burlington, MA, USA) to prepare stock solutions at concentrations of 10–25 mg/mL. […] For in vitro anticancer activity screening, the compounds were thawed at room temperature, protected from light, and the aliquots were diluted in complete cell culture media to achieve a final concentration of 100 µM and used for the in vitro assays. The cytotoxicity assays were performed in triplicate.
as §1, §2

E. coli AR-0001 [10] = assay: Broth microdilution MIC, E. coli AR-0001; assay type: cell-based, Escherichia coli; settings: multidrug-resistant, KPC-3; CAMHB
Source text: as §4, §5

K. pneumoniae AR-0003 [11] = assay: Broth microdilution MIC, K. pneumoniae AR-0003; assay type: cell-based, Klebsiella pneumoniae; settings: KPC-3; CAMHB
Source text: as §4, §5

P. aeruginosa AR-1114 [12] = assay: Broth microdilution MIC, P. aeruginosa AR-1114; assay type: cell-based, Pseudomonas aeruginosa; settings: IMP-15; CAMHB
Source text: as §4, §5

| MIC (E. faecalis AR-0671) | MIC (A. baumannii AR-0273) | MIC (S. aureus TCH 1516 [4]) | MIC (E. coli AR-0001 [5]) | MIC (K. pneumoniae AR-0003 [6]) | MIC (P. aeruginosa AR-1114 [7]) | minimal inhibitory concentration (MIC) S. aureus TCH 1516 (S. aureus TCH 1516 [8]) | minimal inhibitory concentration (MIC) E. faecalis AR-0671 (E. faecalis AR-0671) | minimal inhibitory concentration (MIC) E. coli AR-0001 (E. coli AR-0001 [10]) | minimal inhibitory concentration (MIC) K. pneumoniae AR-0003 (K. pneumoniae AR-0003 [11]) | minimal inhibitory concentration (MIC) P. aeruginosa AR-1114 (P. aeruginosa AR-1114 [12]) | minimal inhibitory concentration (MIC) A. baumannii AR-0273 (A. baumannii AR-0273) | Structure (SMILES) | IC50 (HEK293 cells) | IC50 (FaDu cells [1]) | hydrogen peroxide levels (optical density at 525 nm) (FaDu cells [2]) | IC50 (HEK293 cells; Homo sapiens) | IC50 (FaDu cells [1]; Homo sapiens) | SOD activity (U/mL of cell lysate) (FaDu cells [3]) | post-treatment viability (MTT assay) (FaDu cells [9]) |
| --- | --- | --- | --- | --- | --- | --- | --- | --- | --- | --- | --- | --- | --- | --- | --- | --- | --- | --- | --- |
| – | – | – | – | – | – | – | – | – | – | – | – | N.N.[Cl][Pt][Cl] [CP, Cisplatin, reference compound] | 15.9 µM | 16.3 µM | lower level of hydrogen peroxide production than the tested compounds | – | – | – | – |
| 32 µg/mL (≈ 155 µM) | > 64 µg/mL | 16 µg/mL (≈ 77.6 µM) | > 64 µg/mL | > 64 µg/mL | > 64 µg/mL | – | – | – | – | – | – | O=C1CCN(c2cccc(O)c2)C(=O)N1 [Compound 5, 1-(3-Hydroxyphenyl)dihydropyrimidine-2,4(1H,3H)-dione] | – | – | significantly higher | 41.8 µM | 9.9 µM | significantly higher | – |
| 32 µg/mL (≈ 144 µM) | > 64 µg/mL | 8 µg/mL (≈ 36 µM) | > 64 µg/mL | > 64 µg/mL | > 64 µg/mL | 16 µg/mL (≈ 72 µM) | – | – | – | – | – | O=C1CCN(c2cccc(O)c2)C(=S)N1 [Compound 6, 1-(3-Hydroxyphenyl)-2-thioxotetrahydropyrimidin-4(1H)-one] | – | – | significantly higher | 22.6 µM | 13.4 µM | significantly higher | most promising reduction in cell viability |
| > 64 µg/mL | > 64 µg/mL | > 64 µg/mL | > 64 µg/mL | > 64 µg/mL | > 64 µg/mL | >64 µg/mL | >64 µg/mL | >64 µg/mL | >64 µg/mL | >64 µg/mL | >64 µg/mL | CC(C)=NNC(=O)CCN(CCC(=O)NN=C(C)C)c1cccc(O)c1 [Compound 19, 3,3′-((3-Hydroxyphenyl)azanediyl)bis(N′-(propan-2-ylidene)propanehydrazide)] | – | – | – | – | – | – | lower activity compared with compound 22 |
| 16 µg/mL (≈ 29.7 µM) | > 64 µg/mL | 32 µg/mL (≈ 59.3 µM) | 64 µg/mL (≈ 119 µM) | > 64 µg/mL | > 64 µg/mL | – | – | – | – | – | – | O=C(CCN(CCC(=O)N/N=C1\C(=O)Nc2ccccc21)c1cccc(O)c1)N/N=C1\C(=O)Nc2ccccc21 [Compound 25] | – | – | significantly higher | 11.7 µM | 5.28 µM | significantly higher; also recorded: highest SOD activity | most promising reduction in cell viability |
| – | – | – | – | – | – | – | – | – | – | – | – | COc1cccc2c1C(=O)c1c(O)c3c(c(O)c1C2=O)C[C@@](O)(C(=O)CO)C[C@@H]3O[C@H]1C[C@H](N)[C@H](O)[C@H](C)O1 [DOX, doxorubicin hydrochloride, reference compound] | – | – | significant increase | – | 1.81 µM | – | – |

Source: publication PMC12115217, “3,3′-((3-Hydroxyphenyl)azanediyl)dipropionic Acid Derivatives as a Promising Scaffold Against Drug-Resistant Pathogens and Chemotherapy-Resistant Cancer” (Pathogens, 2025)
